{"source": "patent US9109003B2", "about": "“Extraction method for Ilex kudingcha C. J. Tseng leaves, total saponins and use thereof” (Peking University, priority 2011, dated 2015)", "tested_on": "ApoE−/− mice", "assay": "Arteriosclerotic area of ApoE−/− mice aortic outflow tract", "format": "in vivo", "details": "high fat diet, vs HG (p<0.01), atorvastatin 50 mg/kg/d, total saponins 300 mg/kg/d, 6 weeks", "description": "ApoE−/− mice were divided into four groups randomly by weight.\n(1) Negative control group (CG): mice in this group were fed normally for 7 weeks, and intragastrically administrated with normal saline.\n(2) High fat control group (HG): mice in this group were fed with high fat diet containing 0.2% cholesterol for 7 weeks, and intragastrically administrated with normal saline every day simultaneously.\n(4) I. kudingcha total saponin therapeutic group (SG): the course of treatment is similar to that of AG, with the only difference between SG and AG lies in that the dosage of the total saponins from I. kudingcha is 300 mg/kg/d.\nEffect of total saponins from I. kudingcha leaves on arteriosclerotic area of ApoE−/− mice aortic outflow tract is shown in FIG. 7.", "data": [{"smiles": "CC(C)c1c(C(=O)Nc2ccccc2)c(-c2ccccc2)c(-c2ccc(F)cc2)n1CC[C@@H](O)C[C@@H](O)CC(=O)O", "note": "[atorvastatin]", "values": [{"measurement": "inhibition rate of formation of atherosclerotic plaque of aortic outflow tract", "value": "about 40%"}]}]}
